Entries after “also recorded” stand apart in the source; their conditions may differ.
Tests used:
[1] = tested on: Nav1.9; assay: Whole-cell voltage clamp recording of Nav1.9 activation curve in DRG neurons; type: cell-based; conditions: for reversal of the inflammatory cocktail-induced shift of Nav1.9 activation curve: cholesterol supply in presence of inflammatory cocktail; for shift of Nav1.9 activation curve: substance alone versus control neuron, MβCD 20 mM, water soluble cholesterol 20 mM, cholesterol oxidase 4 U/ml, 15 min 37° C.
Experimental: Dissociation of DRG neurons has been previously described (Coste et al., 2004; Coste et al., 2007). In brief, thoraco-lumbar DRG neurons were excised and incubated in enzyme solution containing 2 mg/ml of collagenase IA (Sigma) for 45 min at 37° C. before trituration in Hanks' medium (Life Technologies). Culture medium was Dulbecco's modified Eagle's medium (DMEM, Life Technologies) supplemented with 10% heat-inactivated fetal calf serum, 50 U/ml penicillin-streptomycin, 2 mML-glutamine, 25 mM glucose, 2 ng/ml glial-derived neurotrophic factor (GDNF) (all from Life Technologies), and 25 ng/ml nerve growth factor (NGF, Millipore). Cells were seeded on 35 mm cultures dishes (Nunc) coated with 2 mg/ml laminin (Sigma) and maintained in a humidified atmosphere (5% CO2, 37° C.) for 16-24 h before further cholesterol manipulations or electrophysiological recording.
Patch pipettes had resistances of 3-3.5 MΩ for whole-cell voltage clamp recordings. Intracellular solution used in this study contained: 130 CsCl, 10 HEPES, 8 NaCl, 5 EGTA, 2.4 CaCl2, 1 MgCl2 (pH 7.3, 298 mOsm/l). […] Extracellular solution contained 500 nM tetrodotoxin (TTX) as well as 1 mM amiloride and 50 μM La^3+ in order to block Ca^2+ currents without altering NaN/Nav1.9 properties (Coste et al., 2007). […]. Extracellular media were exchanged using a gravity-fed bath perfusion system at a flow rate of 2-5 ml/min, while bath solution was removed by continuous suction. Recycling was used to reduce the amount of TTX used. Stock solutions of TTX (0.1 mM) and La^3+ (1M) were prepared in water. Stock solution of amiloride hydrochloride (1M) was made in dimethylsulfoxyde (final concentration, 0.1%).
For drugs application, DRG cultures were incubated for 15 min at 37° C. in DMEM containing freshly prepared MβCD (20 mM), water soluble cholesterol (20 mM), or cholesterol oxidase (4 U/ml). The inflammatory cocktail was incubated in extracellular solution for at least 20 min at room temperature (RT).
Data were acquired with an Axopatch 200B amplifier (Axon Instruments), filtered at 2 kHz, and digitally sampled at 20 kHz using PCLAMP 10 software. Currents were leak subtracted using a P/6 protocol. Voltage errors were minimized using 70-85% series resistance compensation. Whole-cell recording were begun 1 min after achieving the whole-cell configuration, to allow Cs^+ to equilibrate and to allow Nav1.9 channels to recover from slow inactivation. Conductance-voltage curves were calculated from the peak current according to the equation G=I/(V−Erev), where V is the test pulse potential and Erev the reversal potential calculated according to the Nernst equation. The activation curve (G-V) was fitted using the Boltzmann function: G/Gmax=1/(1+exp[(V1/2−V)/k]), where G/Gmax is the normalized conductance, V1/2 is the potential of half-maximum channel activation, and k is the steepness factor.

[2] = tested on: arthritic mice; assay: CFA induced chronic inflammation (monoarthritis), dynamic weight bearing; type: in vivo
Experimental: Chronic inflammation (monoarthritis model) was induced under 2% isoflurane anesthesia by two subcutaneous injections of 15 μl around the tibio-tarsal joint of mice with complete Freund adjuvant (CFA), containing 5 μg/μl heat-killed Mycobacterium butyricum (Becton, Dickinson and cie). The animals' weight distribution on the four limbs was assessed using the dynamic weight bearing test (BioSeb). This new incapacitance test consists in a continuous measurement of all pressure points applied by a freely moving animal, allowing a quantitative evaluation of the weight imbalance caused by paw mechanical allodynia. Mice were placed in an 11×11×22 cm cage with a 44×44 sensor cells grid on the floor. The pressure applied on sensor cells by the animal's paws is recorded at a 10 Hz frequency over a 5 min period. Pressure and surface detection thresholds were determined automatically for each animal by the Dynamic weight bearing 1.3.2h software (Bioseb). After the manual attribution of each pressure point to the corresponding paw, the mean weight applied on each paw is calculated. Unilateral pain is finally evaluated trough the ipsi/contralateral hindpaws weight ratio, the weight applied on forepaws, and the percentage of time spent raising ipsilateral hindpaw.

[3] = tested on: wild type and Nav1.9 KO mice; assay: Von Frey test in non-inflamed animals; type: in vivo; conditions: intraplantar injection, non-inflamed wild type and Nav1.9 KO mice
Experimental: (§1) Methyl βcyclodextrin or α-cyclodextrin (both from sigma) were diluted in saline buffer prior to injection. Methyl βcyclodextrin/cholesterol complex (40 mg of cholesterol/g of complex) also called soluble cholesterol was purchased (from Sigma). Unless otherwise states, all cyclodextrin or cyclodextrin/cholesterol complexes were injected at a 40 mM concentration of cyclodextrin corresponding to 5.6 mM of cholesterol in the complex. Mechanical pain threshold was assessed using von Frey filaments (BioSeb) calibrated from 0.008 to 4.000 g. The filaments were applied five times each, in order of increasing forces, and pressed perpendicularly to the plantar surface of the hindpaw until they bent. The first filament which evoked at least 3/5 response was assigned as the pain threshold in grams.

[4] = tested on: mice; assay: Carrageenan model of persistent paw inflammation, von Frey test; type: in vivo
Experimental: Persistent paw inflammation was induced by intraplantar injection of 20 μl of 2% λ-carrageenan (Sigma) in mice. Control animal received only vehicle saline solution (0.9% NaCl). 1 hr prior to carrageenan injection, animals received intra peritoneal injection of either saline or ibuprofen (75 mg/kg in saline solution). Mechanical pain threshold was assessed using von Frey filaments (BioSeb) calibrated from 0.008 to 4.000 g. The filaments were applied five times each, in order of increasing forces, and pressed perpendicularly to the plantar surface of the hindpaw until they bent. The first filament which evoked at least 3/5 response was assigned as the pain threshold in grams.

[5] = tested on: arthritic mice; assay: CFA chronic arthritis pain, transdermal gel, mechanical pain; type: in vivo; conditions: gel application; cholesterol 28 mM or ibuprofen 5%
Experimental: Chronic inflammation (monoarthritis model) was induced under 2% isoflurane anesthesia by two subcutaneous injections of 15 μl around the tibio-tarsal joint of mice with complete Freund adjuvant (CFA), containing 5 μg/μl heat-killed Mycobacterium butyricum (Becton, Dickinson and cie). Mechanical pain threshold was assessed using von Frey filaments (BioSeb) calibrated from 0.008 to 4.000 g. The filaments were applied five times each, in order of increasing forces, and pressed perpendicularly to the plantar surface of the hindpaw until they bent. The first filament which evoked at least 3/5 response was assigned as the pain threshold in grams.

[6] = tested on: wild type and Nav1.9 KO mice; assay: Von Frey test after intraplantar injection of cyclodextrins (cholesterol depletion); type: in vivo; conditions: for mechanical allodynia / tactile hyperalgesia (von Frey filament test): intraplantar injection of 20 μl of a 40 mM solution
Experimental: as §1

[7] = periarticular injection, 20 μl of a 5.6 mM solution, versus saline

Compound: CC(C)CCC[C@@H](C)[C@H]1CC[C@H]2[C@@H]3CC=C4C[C@@H](O)CC[C@]4(C)[C@H]3CC[C@]12C [cholesterol]
- reversal of the inflammatory cocktail-induced shift of Nav1.9 activation curve [1]: reverses this shift of activation
- reversal of the inflammatory cocktail-induced shift of Nav1.9 activation curve ([1]; listed as Cholesterol): reverses the shift
- shift of Nav1.9 activation curve [1]: does not modify activation properties of Nav1.9
- weight put on tail ([2]; periarticular cholesterol injection versus saline injected mice): reduces the weight put on tail
- posture / behavioural parameters (dynamic weight bearing) [2, 7]: improved all posture parameters examined; also recorded: improve behavioural parameter of arthritic mice
- weight borne by inflamed limbs [2, 7]: bear more weight than limbs injected with saline solution
- mechanical threshold in physiological non-inflamed conditions [3]: without changing physiological mechanical threshold
- mechanical threshold in physiological non-inflamed conditions ([3]; listed as Cholesterol): does not modify mechanical sensibility
- carrageenan induced mechanical allodynia, transdermal delivery ([4]; gel with 5.6 mM cholesterol applied for 1.5 hrs, versus control gel): kills carragenin induced pain
- lambda-carrageenan-induced tactile hyperalgesia (von Frey) ([4]; intraplantar injection of soluble cholesterol, 5, 6 mM of cholesterol): inhibits inflammatory evoked pain
- chronic arthritis mechanical pain, transdermal delivery [5]: much efficient to treat arthritic inflammatory pain than a 5% ibuprofen gel

Compound: CC(C)Cc1ccc(C(C)C(=O)O)cc1 (stereo not drawn) [ibuprofen]
- effect on methyl-beta-cyclodextrin-induced allodynia (mechanical threshold) ([6]; intraperitoneal 75 mg/kg, wild type and Nav1.9 KO mice): does not modify methyl-beta-cyclodextrin-induced tactile hyperalgia; also recorded: does not reverse allodynic phenotype; also recorded: did not change mechanical threshold
- lambda-carrageenan-induced tactile hyperalgesia (von Frey) ([4]; intraperitoneal injection (75 mg/kg, 1 hr prior to carrageenan)): reverse lambdα-carrageenan-induced tactile hyperalgesia

Compound: OC[C@H]1O[C@@H]2O[C@H]3[C@H](O)[C@@H](O)[C@@H](O[C@H]4[C@H](O)[C@@H](O)[C@@H](O[C@H]5[C@H](O)[C@@H](O)[C@@H](O[C@H]6[C@H](O)[C@@H](O)[C@@H](O[C@H]7[C@H](O)[C@@H](O)[C@@H](O[C@H]1[C@H](O)[C@H]2O)O[C@@H]7CO)O[C@@H]6CO)O[C@@H]5CO)O[C@@H]4CO)O[C@@H]3CO [α-CD, α-cyclodextrin]
- mechanical allodynia / tactile hyperalgesia (von Frey filament test) ([6]; Nav1.9 KO mice): did not induce mechanical allodynia
- mechanical allodynia / tactile hyperalgesia (von Frey filament test) ([6]; wild type mice): did not induce mechanical allodynia
- mechanical allodynia / tactile hyperalgesia (von Frey filament test) ([6]; wild type mice, listed as Alphα-cyclodextrin): does not induce tactile hyperalgia

Compound: cholesterol oxidase
- shift of Nav1.9 activation curve [1]: induces the same shift as inflammatory cocktail; also recorded: shift Nav1.9 activation curves to hyperpolarised potential

Compound: methyl-beta-cyclodextrin [MBCD]
- mechanical allodynia / tactile hyperalgesia (von Frey filament test) ([6]; Nav1.9 KO mice): markedly reduced
- mechanical allodynia / tactile hyperalgesia (von Frey filament test) ([6]; wild type mice): induces a strong mechanical allodynia
- shift of Nav1.9 activation curve [1]: shift Nav1.9 activation curves to hyperpolarised potential
- shift of Nav1.9 activation curve ([1]; listed as MβCD): induces the same shift as inflammatory cocktail

Reference: patent publication US20160000804A1, “INHIBITORS OF NA(V) 1.9 CHANNEL ACTIVITY AND USES THEREOF FOR TREATING PAIN” (UNIVERSITE D'AIX-MARSEILLE, priority 2013, published 2016)
